US5484778A, “Phthalocyanine photosensitizers for photodynamic therapy and methods for their use” (priority 1993, dated 1996)

Legend:
[1] = test system: viruses; details: New York Blood Center (Ben-Hur); cited from earlier work
[2] = test system: Chinese hamster V79-379 cells; test: Clonogenic cell survival / photocytotoxicity in V79 cells (Table 1, FIG. 1, FIG. 2); assay type: cell-based
Description: FIG. 1 is a graph illustrating the photodynamic efficacy of the various compositions of the present invention in comparison to AlPcCl. The phthalocyanine composition compounds of the present invention were tested for their photodynamic efficiency against Chinese hamster fibroblast V79 cells by colony formation. Monolayer cultures were treated with the indicated phthalocyanine composition for 18 hours, irradiated with various fluences of red light, and immediately trypsinized and replated at appropriate aliquots in triplicate. Colonies of at least 50 cells were counted after 7-10 days. The plating efficiency of the untreated cells was approximately 90%.
In this regard, in FIG. 2 the data of FIG. 1 were replotted as a function of the product of the amount of cell-associated phthalocyanine and the light fluence.
(§1) Chinese hamster V79-379 lung fibroblasts were grown in monolayer culture in McCoy's 5A medium (Gibco Laboratories, Grand Island, N.Y.) augmented with 10% calf serum and buffered with 20 mM HEPES (pH 7.4).
(§2) The cells were treated with 1 μM AlPcCl (from Eastman Kodak, Rochester, N.Y.) or with phthalocyanine compositions I-VI (0.5-1.0 μM final concentration in the medium) for 18 hours by adding the appropriate volume of a 1.0 mM stock solution in dimethylformamide (DMF) to the culture medium. The growth medium was replaced with 4 ml Hank's balanced salt solution (HBSS), and the cells were irradiated. The light source was a 500 W tungsten-halogen lamp located approximately 29 inches below the surface of a glass exposure tray. The visible light administered to the cells was filtered to allow passage of only that portion of the visible spectrum above 600 nm (Lee Primary red filter No. 106, Vincent Lighting, Cleveland, Ohio). The fluence rate was approximately 0.074 kJ/m^2 /s at the level of the cell monolayer.
Cells were irradiated at a density of approximately 2×10^6 per 25 cm^2 flask. Immediately after irradiation, the cell monolayer was treated with trypsin, and appropriate aliquots were plated in triplicate to give 100 to 200 colonies in each 10-cm Petri dish. Cell survival was determined by the ability of the cells to form colonies containing at least 50 cells. The response of cells treated with 1 μM AlPcCl and light was compared in each experiment.
Photocytotoxicity of the phthalocyanines compounds I to VI was also assessed by clonogenic assay (Table 1, FIG. 1). In all experiments, 1 μM AlPcCl was included for comparison purposes. From the survival curves (FIG. 1), the fluence reducing the cell survival to 10% (F10) was obtained. The ratio of the F10 for AlPcCl and the F10 for the test compound is recorded in Table 1.
In order to take differences in cellular uptake into consideration in the assessment of the relative efficiency of these phthalocyanines as photosensitizers of V79 cells, the survival data were replotted against the product of intracellular phthalocyanine concentration and light fluence (FIG. 2). From these curves, the product of intracellular concentration and light fluence reducing survival to 10% (CF10) was obtained, and comparisons of the values for AlPcCl and the test compounds are recorded in Table 1.

[3] = test system: Chinese hamster V79-379 cells; test: Growth delay of V79 cultures after red light (Table 1); assay type: cell-based; details: for Growth Delay, efficiency relative to 1 μM AlPcCl: 18 h, 12 kJ/m^2 red light; for inhibition of V79 culture growth (in words): red light 12 kJ/m^2, three day period
Description: as §1, §2
At the time of light exposure, there were approximately 1.5×10^5 cells per 25 cm^2 flask. Following irradiation, the HBSS was replaced by 10 ml of fresh complete growth medium, and the cultures were returned to the 37° C. incubator. At various times before and after irradiation, duplicate cultures were trypsinized and counted. Controls included untreated cells and cells treated with light alone or drug alone. In addition, in each experiment, the drug to be tested was compared to a standard treatment, i.e. 1 μM AlPcCl for 18 hours followed by 12 kJ/m^2 light.
The inhibition of V79 culture growth was measured during a three day period following red light irradiation (12 kJ/m^2) of phthalocyanine-pretreated cells. With each of the active compounds, as well as with AlPcCl, there was an initial decrease in cell density, as dead cells became detached from the monolayer. Thereafter, the cell number per flask increased, as living cells grew and divided. The time for the cell density to recover to the level at the time of light exposure was considered the growth delay. […] The ratio of the growth delay for the test photosensitizer and the growth delay for AlPcCl measured in the same experiment is recorded in Table 1.

[4] = test system: RIF-1 tumors; test: PDT of RIF-1 implanted tumors (Table 7); assay type: in vivo, C3H/HeN mice; details: 1 mg/kg in corn oil; 675 nm, 135 J/cm^2
In short: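 C3H/HeN mice each carried one RIF-1 fibrosarcoma on the back and received 1 mg/kg phthalocyanine as a corn-oil suspension. Volume was measured daily by calipers from a 50±10 mm^3 start and calculated with the hemiellipsoid model.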

[5] = test system: L5178Y cells; test: Induction of apoptosis (DNA fragmentation) in L5178Y-R cells (Table 6); assay type: cell-based, mouse; details: 1 μM at a fluence of 30 kJ/m^2
In short: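 Exponentially growing mouse lymphoma L5178Y-R cells loaded 18 hours with phthalocyanine at various concentrations, then irradiated with >600 nm red light (up to 30 kJ/m^2, ~74 W/m^2). DNA isolated 2 hours post-PDT, run on 1.5% agarose; value is minimum PDT dose (concentration × fluence) giving visible DNA ladder.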

[6] = test system: Chinese hamster fibroblasts, i.e. V79 cells
Description: Initially, applicants examined the photocytotoxicity of twenty-one phthalocyanines taken from a collection in the applicants' laboratories to Chinese hamster fibroblasts, i.e. V79 cells.

Compound | purging viruses from blood and/or blood components [1] | CF10 (AlPcCl)/CF10 (Pc) ([2]; 1.0 μM, 18 h, CF10 = intracellular concentration x fluence reducing survival to 10%) | F10 (AlPcCl)/F10 (Pc) ([2]; 1.0 μM, 18 h, F10 = fluence reducing survival to 10%) | Growth Delay, efficiency relative to 1 μM AlPcCl [3] | inhibition of V79 culture growth (in words) [3] | Doubling Time of Initial Tumor Volume after PDT [4] [days] | induction of apoptosis [5] | photosensitizing efficiency / photocytotoxicity (in words) [2] | photocytotoxicity (in words) [6] | uptake by V79 cells (in words) [6]
C[N+](C)(C)CCC[Si](C)(C)O[Si]1(O)n2c3c4ccccc4c2N=C2N=C(N=c4c5ccccc5c(n41)=NC1=NC(=N3)c3ccccc31)c1ccccc12.[I-] (centres unmarked) [Compound V, HOSiPcOSi(CH3)2 (CH2)3 N(CH3)3^+ I^-] | effective at purging viruses from blood and/or blood components | 3.0 | 0.59 | 0 | less inhibition of culture growth | 6 | did not induce apoptosis |  |  | 
C[N+](C)(C)CCC[Si](C)(C)O[Si]1(O[Si](C)(C)CCC[N+](C)(C)C)n2c3c4ccccc4c2N=C2N=C(N=c4c5ccccc5c(n41)=NC1=NC(=N3)c3ccccc31)c1ccccc12.[I-].[I-] [Compound VI, SiPc[OSi(CH3)2 (CH2)3 N(CH3)3)^+ I^- ]2] | effective at purging viruses from blood and/or blood components |  |  | 0.05 | less inhibition of culture growth |  | did not induce apoptosis | low activity |  | 
CCN(CC)CC(O)COCCC[Si](C)(C)O[Si]1(O)n2c3c4ccccc4c2N=C2N=C(N=c4c5ccccc5c(n41)=NC1=NC(=N3)c3ccccc31)c1ccccc12 (centres unmarked) [HOSiPcOSi(CH3)2 (CH2)3 OCH2 --CHOHCH2 N(C2 H5) 2] |  |  |  |  |  |  |  |  | excellent photocytotoxicity | taken up efficiently by the Chinese hamster fibroblast V79 cells
